Active and inactive are the calls of the source. The rule behind the calls is not given here.
Legend:
[1] = tested on: HCT-116; experiment: Antiproliferative activity against human HCT116 cells after 72 hrs by MTT assay; type: functional, cell-based; settings: HCT-116, 72 h
[2] = tested on: HeLa; experiment: Antiproliferative activity against human HeLa cells after 72 hrs by MTT assay; type: functional, cell-based
[3] = tested on: HT-29; experiment: cells; settings: Homo sapiens, HT-29, 72 h
[4] = tested on: MCF7; experiment: cells; settings: Homo sapiens, MCF7, 72 h
[5] = tested on: A549; experiment: cells; settings: Homo sapiens, A549, 72 h
Description: Antiproliferative activity against human A549 cells after 72 hrs by MTT assay

[6] = tested on: HCT-116; experiment: Antiproliferative activity against human HCT116 cells at 20 uM after 72 hrs by MTT assay relative to control; type: functional, cell-based; settings: HCT-116, 72 h
[7] = tested on: HT-29; experiment: Antiproliferative activity against human HT-29 cells at 20 uM after 72 hrs by MTT assay relative to control; type: functional, cell-based; settings: HT-29, 72 h
[8] = tested on: HeLa; experiment: Antiproliferative activity against human HeLa cells at 20 uM after 72 hrs by MTT assay relative to control; type: functional, cell-based
[9] = tested on: MCF7; experiment: Antiproliferative activity against human MCF7 cells at 20 uM after 72 hrs by MTT assay relative to control; type: functional, cell-based; settings: MCF7, 72 h
[10] = tested on: A549; experiment: Antiproliferative activity against human A549 cells at 20 uM after 72 hrs by MTT assay relative to control; type: functional, cell-based; settings: A549, 72 h
[11] = tested on: HCT-116; experiment: Induction of DNA damage in human HCT116 cells assessed as G2/M checkpoint activation measured as reduction in mitotic index after 2 hrs by immunofluorescence assay; type: functional
[12] = tested on: HCT-116; experiment: Induction of DNA damage in human HCT116 cells assessed as formation of marker ser-139 phosphorylated H2AX nuclear foci after 2 hrs by immunofluorescence assay; type: functional, cell-based
[13] = tested on: HCT-116; experiment: Cell cycle arrest in human HCT116 cells assessed as accumulation at G2/M phase at IC50 after 24 hrs by propidium iodide staining-based FACS flow cytometric analysis (reference value: 11.54%); type: functional
[14] = tested on: HCT-116; experiment: Cell cycle arrest in human HCT116 cells assessed as accumulation at S phase at IC50 after 24 hrs by propidium iodide staining-based FACS flow cytometric analysis (reference value: 25.39%); type: functional
[15] = tested on: HCT-116; experiment: Cell cycle arrest in human HCT116 cells assessed as accumulation at G0/G1 phase at IC50 after 24 hrs by propidium iodide staining-based FACS flow cytometric analysis (reference value: 63.07%); type: functional
[16] = target: Thymidylate synthase (Homo sapiens) (UniProt P04818); experiment: Inhibition of human recombinant His-tagged thymidylate synthase assessed as N5,N10-methylenetetrahydrofolate oxidation to dihydrofolate at 50 uM after 20 mins by UV spectrophotometric analysis relative to control
Thymidylate synthase (Homo sapiens), sequence (P04818 2-313 limits assumed): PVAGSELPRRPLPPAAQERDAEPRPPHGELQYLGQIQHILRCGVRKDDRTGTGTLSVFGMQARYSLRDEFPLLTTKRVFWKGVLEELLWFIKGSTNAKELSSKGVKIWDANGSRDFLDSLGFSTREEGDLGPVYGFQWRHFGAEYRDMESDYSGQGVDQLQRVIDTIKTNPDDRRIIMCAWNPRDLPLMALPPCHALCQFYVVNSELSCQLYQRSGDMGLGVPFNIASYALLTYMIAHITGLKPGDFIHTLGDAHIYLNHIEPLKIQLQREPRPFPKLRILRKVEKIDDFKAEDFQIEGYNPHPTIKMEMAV

[17] = target: T1, Dihydrofolate reductase (Homo sapiens) (UniProt P00374); experiment: Inhibition of human dihydrofolate reductase at 500 nM by spectrophotometric analysis relative to control
T1 sequence (whole entry): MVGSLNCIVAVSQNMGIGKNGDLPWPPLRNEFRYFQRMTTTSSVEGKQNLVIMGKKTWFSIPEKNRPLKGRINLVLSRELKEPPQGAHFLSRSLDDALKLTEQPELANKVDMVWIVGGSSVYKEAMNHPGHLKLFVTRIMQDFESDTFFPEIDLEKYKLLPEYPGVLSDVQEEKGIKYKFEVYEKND

[18] = target: T2, Dihydrofolate reductase (Homo sapiens, UniProt P00374); experiment: Inhibition of human dihydrofolate reductase by spectrophotometric analysis
T2 sequence (P00374 whole entry): T1 sequence (whole entry)

| SMILES | IC50 [1] [µM] | IC50 [2] [µM] | IC50 [3] [µM] | IC50 [4] [µM] | IC50 [5] [µM] | further results |
| --- | --- | --- | --- | --- | --- | --- |
| Cc1ccc(N2CCN(C(=S)SCc3ccc4nc(N)nc(N)c4c3)CC2)cc1 | 5.51 | 2.13 | 3.02 | 2.48 | 2.19 |  |
| Nc1nc(N)c2cc(CSC(=S)N3CCN(C4CCCCC4)CC3)ccc2n1 | 8.4 | 5.96 | 4.05 | 6.8 | 4.71 |  |
| Cc1ccc(N2CCN(C(=S)SCc3ccc4nc(N)nc(N)c4c3)CC2)c(C)c1 | 4.07 | 3.19 | 2.97 | 3.12 | 3 |  |
| CN1CCN(C(=S)SCc2ccc3nc(N)nc(N)c3c2)CC1 |  |  |  |  | 9.2 | IC50 [6]: > 20 µM; IC50 [7]: > 20 µM; IC50 [8]: > 20 µM; IC50 [9]: > 20 µM |
| Nc1nc(N)c2cc(CSC(=S)N3CCN(c4ccc(C(F)(F)F)cc4)CC3)ccc2n1 |  |  |  | 7.4 |  | IC50 [6]: > 20 µM; IC50 [7]: > 20 µM; IC50 [8]: > 20 µM; IC50 [10]: > 20 µM |
| Nc1nc(N)c2cc(CSC(=S)N3CCN(c4ccccc4Cl)CC3)ccc2n1 | 5.49 | 4.05 | 3.9 | 3.19 | 3.61 |  |
| Nc1nc(N)c2cc(CSC(=S)N3CCN(c4ccccc4)CC3)ccc2n1 | 4.12 | 2.84 | 2.76 | 2.95 | 2.97 |  |
| Nc1nc(N)c2cc(CSC(=S)N3CCN(c4ccc(Cl)c(Cl)c4)CC3)ccc2n1 | 6.68 | 3.06 | 3.48 | 2.37 | 2.94 |  |
| Nc1nc(N)c2cc(CSC(=S)N3CCN(c4ccccc4[N+](=O)[O-])CC3)ccc2n1 | 5.52 | 4.88 | 4.31 | 4.35 | 4.36 |  |
| Nc1nc(N)c2cc(CSC(=S)N3CCN(c4ccc(F)cc4)CC3)ccc2n1 | 3.27 | 1.84 | 2.05 | 1.92 | 2.04 | Ratio [11]: 0.45; Activity [12]: Active; Activity [13]: 14.15%; Activity [14]: 39.22%; Activity [15]: 46.63%; inhibition [16]: 19.9%; inhibition [17]: 35%; IC50 [18]: 2.11 µM |
| Nc1nc(N)c2cc(CSC(=S)N3CCN(c4ncccn4)CC3)ccc2n1 | 5.84 | 4.36 | 4.72 | 4.19 | 4.01 |  |
| Nc1nc(N)c2cc(CSC(=S)N3CCN(c4ccc(O)cc4)CC3)ccc2n1 | 5.98 | 5.18 |  | 5.09 | 4.21 | IC50 [7]: > 20 µM |

— ChEMBL document CHEMBL2385040, “Synthesis and antiproliferative activity of 4-substituted-piperazine-1-carbodithioate derivatives of 2,4-diaminoquinazoline” (Eur J Med Chem, 2013)
